Read-outs that look alike come from different tables or passages of the source.
Tests used:
[1] = ref PharmaPendium, cited from earlier work
[2] = test system: hiPSC-derived neurons co-cultured with human primary astrocytes in 3D; experiment: Ca2+ transient oscillation assay (FDSS), 3D spheroids; format: cell-based; conditions: 60 min
Summary of the method: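 Fura-2 fluorescence was read twice for 20 min each: a baseline 10 min after 0.04% DMSO, and again 60 min after compound addition at nominal final concentration. The 3D co-cultures (1:1 hiPSC neurons from a donor and human astrocytes, 8000 each) matured 5 weeks in BrainPhys medium after a 1-week differentiation.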

[3] = test system: hiPSC-derived neurons co-cultured with human primary astrocytes in 2D; experiment: Ca2+ transient oscillation assay (FDSS), 2D co-culture; format: cell-based; conditions: for activation at 0.37 µM / activation at 1.11 µM / activation at 3.33 µM / activation at 10 µM / activation at 0.04 µM / activation at 0.11 µM / activation at 0.33 µM / activation at 1 µM: Homo sapiens, 1 h, 60 min
Summary of the method: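 hiPSC-derived excitatory neurons (CW50065, Quick-Neuron EX-SeV) co-cultured with human primary astrocytes at 4:1 (10,000:2500 cells per well). Cal-520-loaded cells in HBSS with 2 mM CaCl2 and 10 mM HEPES were pretreated with 0.04% DMSO.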

[4] = Table 1, peak plasma concentration in men, free therapeutic Cmax
[5] = Table 2, highest plasma concentration in humans after the therapeutic dose
[6] = read-out: Area under the curve - 2D Mean
[7] = read-out: Peak amplitude - 2D Mean
[8] = read-out: Peak-to-peak interval - 2D Mean

Question: Which “Free Cmax” value [1, 4] does the source give for CCN(CC)CCCC(C)Nc1c2ccc(Cl)cc2nc2ccc(OC)cc12 (stereo not shown) [Quinacrine, quinacrine] here?
Answer: 0.05 µM

Question: What about the “Free Cmax” value [1, 5] of the same compound?
Answer: 0.05 µM

Question: And the “Area under the curve - 3D Mean” value ([2]; 0.37 µM)?
Answer: 123.5 % change from baseline

Question: What about the “Peak Number—3D Mean” value ([2]; 0.37 µM) of the same compound?
Answer: 3.2 % change from baseline

Question: What about the “Peak amplitude - 3D Mean” value ([2]; 0.37 µM) of the same compound?
Answer: 113.4 % change from baseline

Question: What about the “Peak width - 3D Mean” value ([2]; 0.37 µM) of the same compound?
Answer: −1.8 % change from baseline

Question: And the “Peak-to-peak interval - 3D Mean” value ([2]; 0.37 µM)?
Answer: −0.7 % change from baseline

Question: And the “Area under the curve - 3D Mean” value ([2]; 1.11 µM)?
Answer: 149.1 % change from baseline

Question: What about the “Peak Number—3D Mean” value ([2]; 1.11 µM) of the same compound?
Answer: 0.4 % change from baseline

Question: And the “Peak amplitude - 3D Mean” value ([2]; 1.11 µM)?
Answer: 128.3 % change from baseline

Question: What about the “Peak width - 3D Mean” value ([2]; 1.11 µM) of the same compound?
Answer: 4.2 % change from baseline

Question: And the “Peak-to-peak interval - 3D Mean” value ([2]; 1.11 µM)?
Answer: 6.2 % change from baseline

Question: What about the “Area under the curve - 3D Mean” value ([2]; 3.33 µM) of the same compound?
Answer: 139.1 % change from baseline

Question: And the “Peak Number—3D Mean” value ([2]; 3.33 µM)?
Answer: 14.1 % change from baseline

Question: What about the “Peak amplitude - 3D Mean” value ([2]; 3.33 µM) of the same compound?
Answer: 108.9 % change from baseline

Question: And the “Peak width - 3D Mean” value ([2]; 3.33 µM)?
Answer: 10.6 % change from baseline

Question: And the “Peak-to-peak interval - 3D Mean” value ([2]; 3.33 µM)?
Answer: −5.5 % change from baseline

Question: What about the “Area under the curve - 3D Mean” value ([2]; 10 µM) of the same compound?
Answer: 128.2 % change from baseline

Question: And the “Peak Number—3D Mean” value ([2]; 10 µM)?
Answer: 12.5 % change from baseline

Question: What about the “Peak amplitude - 3D Mean” value ([2]; 10 µM) of the same compound?
Answer: 108.3 % change from baseline

Question: What about the “Peak width - 3D Mean” value ([2]; 10 µM) of the same compound?
Answer: 9.5 % change from baseline

Question: What about the “Peak-to-peak interval - 3D Mean” value ([2]; 10 µM) of the same compound?
Answer: −9.8 % change from baseline

Question: What about the activation at 0.37 µM [3, 6] of the same compound?
Answer: 5.3%

Question: And the activation at 0.37 µM ([3]; read-out: Peak Number—2D Mean)?
Answer: -2.7%

Question: And the activation at 0.37 µM [3, 7]?
Answer: 1.8%

Question: What about the activation at 0.37 µM ([3]; read-out: Peak width - 2D Mean) of the same compound?
Answer: 2.8%

Question: And the activation at 0.37 µM [3, 8]?
Answer: 7%

Question: What about the activation at 1.11 µM [3, 6] of the same compound?
Answer: 11.2%

Question: And the activation at 1.11 µM ([3]; read-out: Peak Number—2D Mean)?
Answer: -2.8%

Question: And the activation at 1.11 µM [3, 7]?
Answer: 1.2%

Question: And the activation at 1.11 µM ([3]; read-out: Peak width - 2D Mean)?
Answer: 10.7%

Question: What about the activation at 1.11 µM [3, 8] of the same compound?
Answer: -4%

Question: And the activation at 3.33 µM [3, 6]?
Answer: -13.8%

Question: And the activation at 3.33 µM ([3]; read-out: Peak Number—2D Mean)?
Answer: -11%

Question: What about the activation at 3.33 µM [3, 7] of the same compound?
Answer: -7.8%

Question: And the activation at 3.33 µM ([3]; read-out: Peak width - 2D Mean)?
Answer: -12.8%

Question: And the activation at 3.33 µM [3, 8]?
Answer: 40.2%

Question: And the activation at 10 µM [3, 6]?
Answer: -84.7%

Question: And the activation at 10 µM ([3]; read-out: Peak Number—2D Mean)?
Answer: -92.2%

Question: What about the activation at 10 µM [3, 7] of the same compound?
Answer: -78%

Question: What about the activation at 10 µM ([3]; read-out: Peak width - 2D Mean) of the same compound?
Answer: -84.3%

Question: What about the activation at 10 µM [3, 8] of the same compound?
Answer: -18.2%

Question: Which results are given for CN1CCN(C2=Nc3cc(Cl)ccc3Nc3ccccc32)CC1 [Clozapine]?
Answer: Free Cmax [1, 4]: 0.3 µM; Free Cmax [1, 5]: 0.3 µM; Area under the curve - 3D Mean ([2]; 0.04 µM): 150.1 % change from baseline; Peak Number—3D Mean ([2]; 0.04 µM): 11.1 % change from baseline; Peak amplitude - 3D Mean ([2]; 0.04 µM): 133.6 % change from baseline; Peak width - 3D Mean ([2]; 0.04 µM): 6.2 % change from baseline; Peak-to-peak interval - 3D Mean ([2]; 0.04 µM): 4.5 % change from baseline; Area under the curve - 3D Mean ([2]; 0.11 µM): 153.9 % change from baseline; Peak Number—3D Mean ([2]; 0.11 µM): −10.0 % change from baseline; Peak amplitude - 3D Mean ([2]; 0.11 µM): 130.9 % change from baseline; Peak width - 3D Mean ([2]; 0.11 µM): 8.6 % change from baseline; Peak-to-peak interval - 3D Mean ([2]; 0.11 µM): 19.2 % change from baseline; Area under the curve - 3D Mean ([2]; 0.33 µM): 163.3 % change from baseline; Peak Number—3D Mean ([2]; 0.33 µM): −2.8 % change from baseline; Peak amplitude - 3D Mean ([2]; 0.33 µM): 129.8 % change from baseline; Peak width - 3D Mean ([2]; 0.33 µM): 14.0 % change from baseline; Peak-to-peak interval - 3D Mean ([2]; 0.33 µM): 5.6 % change from baseline; Area under the curve - 3D Mean ([2]; 1 µM): 182.8 % change from baseline; Peak Number—3D Mean ([2]; 1 µM): −13.9 % change from baseline; Peak amplitude - 3D Mean ([2]; 1 µM): 129.4 % change from baseline; Peak width - 3D Mean ([2]; 1 µM): 22.6 % change from baseline; Peak-to-peak interval - 3D Mean ([2]; 1 µM): 14.2 % change from baseline; effect on peak number / Ca2+ neuronal oscillations, in words ([3]; 2D format): significantly increased peak number; activation at 0.04 µM [3, 6]: 28.5%; activation at 0.04 µM ([3]; read-out: Peak Number—2D Mean): 15.3%; activation at 0.04 µM [3, 7]: 12.5%; activation at 0.04 µM ([3]; read-out: Peak width - 2D Mean): 20.8%; activation at 0.04 µM [3, 8]: 1.2%; activation at 0.11 µM [3, 6]: 49%; activation at 0.11 µM ([3]; read-out: Peak Number—2D Mean): 24.2%; activation at 0.11 µM [3, 7]: 16.7%; activation at 0.11 µM ([3]; read-out: Peak width - 2D Mean): 35.5%; activation at 0.11 µM [3, 8]: -15.5%; activation at 0.33 µM [3, 6]: 28.8%; activation at 0.33 µM ([3]; read-out: Peak Number—2D Mean): -15%; activation at 0.33 µM [3, 7]: 9.4%; activation at 0.33 µM ([3]; read-out: Peak width - 2D Mean): 22.8%; activation at 0.33 µM [3, 8]: 82%; activation at 1 µM [3, 6]: 10.8%; activation at 1 µM ([3]; read-out: Peak Number—2D Mean): -8.3%; activation at 1 µM [3, 7]: 1%; activation at 1 µM ([3]; read-out: Peak width - 2D Mean): 11%; activation at 1 µM [3, 8]: 2.7%

Reference: article PMC10046961, “High-Throughput Screening Assay for Detecting Drug-Induced Changes in Synchronized Neuronal Oscillations and Potential Seizure Risk Based on Ca^2+ Fluorescence Measurements in Human Induced Pluripotent Stem Cell (hiPSC)-Derived Neuronal 2D and 3D Cultures” (Cells, 2023)
